From patent US20250051277A1, “DELIVERY OF THERAPEUTIC ALKALOID COMPOUNDS” (Sensorium Therapeutics, Inc., priority 2021, published 2025)
Where two headings read alike, the source gives them in different places.

Experiments:
[1] = format: physicochemical; conditions: SGF with pepsin, pH 1.5, 37° C.; for Condition 1 Conversion (%), first value of pair x/y: first of two values; for Condition 1 Conversion (%), second value of pair x/y: second of two values; for Condition 1 Conversion (%): 0.5 mM
[2] = format: physicochemical; conditions: DI water, 25° C., 0.5 mM

Row | SMILES | Condition 2 Conversion (%) ([2]; time 1 min) | Condition 2 Conversion (%) ([2]; time 5 min) | Condition 2 Conversion (%) ([2]; time 30 min) | Condition 2 Conversion (%) ([2]; time 1 h) | Condition 2 Conversion (%) ([2]; time 4 h) | Condition 2 Conversion (%) ([2]; time 24 h) | Condition 1 Conversion (%) ([1]; time 1 min) | Condition 1 Conversion (%) ([1]; time 5 min) | Condition 1 Conversion (%) ([1]; time 30 min) | Condition 1 Conversion (%) ([1]; time 1 h) | Condition 1 Conversion (%) ([1]; time 4 h) | Condition 1 Conversion (%) ([1]; time 24 h) | other results
1 | COc1ccc([C@@]23CC/C(=N\OC(C)(C)OC)C[C@@H]2N(C)CC3)cc1OC [Compound 204, (E,3aS,7aS)-3a-(3,4-dimethoxyphenyl)-N-(1-methoxy-1-methyl-ethoxy)-1-methyl-2,3,4,5,7,7a-hexahydroindol-6-imine] | 0 | 0 | 0 | 0 | 0 | 0 |  |  |  |  |  |  | Condition 1 Conversion (%), first value of pair x/y ([1]; time 1 min): 100%; Condition 1 Conversion (%), second value of pair x/y ([1]; time 1 min): 0%; Condition 1 Conversion (%), first value of pair x/y ([1]; time 5 min): 100%; Condition 1 Conversion (%), second value of pair x/y ([1]; time 5 min): 0%; Condition 1 Conversion (%), first value of pair x/y ([1]; time 30 min): 0%; Condition 1 Conversion (%), second value of pair x/y ([1]; time 30 min): 100%; Condition 1 Conversion (%), first value of pair x/y ([1]; time 1 h): 0%; Condition 1 Conversion (%), second value of pair x/y ([1]; time 1 h): 100%; Condition 1 Conversion (%), first value of pair x/y ([1]; time 4 h): 0%; Condition 1 Conversion (%), second value of pair x/y ([1]; time 4 h): 100%; Condition 1 Conversion (%), first value of pair x/y ([1]; time 24 h): 0%; Condition 1 Conversion (%), second value of pair x/y ([1]; time 24 h): 100%
2 | COc1ccc([C@@]23CCC(=NOCC4CC4)C[C@@H]2N(C)CC3)cc1OC [Compound 205, (3aS,7aS)-N-(cyclopropylmethoxy)-3a-(3,4-dimethoxyphenyl)-1-methyl-2,3,4,5,7,7a-hexahydroindol-6-imine] | 0 | 0 | 0 | 0 | 0 | 0 | 0 | 0 | 4.5 | 9.4 | 16.7 | 19.3 | 
3 | COc1ccc([C@@]23CCC(=NOC4CCCCO4)C[C@@H]2N(C)CC3)cc1OC (stereo partly drawn) [Compound 206, (3aS,7aS)-3a-(3,4-dimethoxyphenyl)-1-methyl-N-tetrahydropyran-2-yloxy-2,3,4,5,7,7a-hexahydroindol-6-imine] | 0 | 0 | 0 | 0 | 0 | 0 | 0 | 0 |  |  |  |  | Condition 1 Conversion (%), first value of pair x/y ([1]; time 30 min): 1.41%; Condition 1 Conversion (%), second value of pair x/y ([1]; time 30 min): 0%; Condition 1 Conversion (%), first value of pair x/y ([1]; time 1 h): 7.83%; Condition 1 Conversion (%), second value of pair x/y ([1]; time 1 h): 2.57%; Condition 1 Conversion (%), first value of pair x/y ([1]; time 4 h): 0%; Condition 1 Conversion (%), second value of pair x/y ([1]; time 4 h): 77.75%; Condition 1 Conversion (%), first value of pair x/y ([1]; time 24 h): 0%; Condition 1 Conversion (%), second value of pair x/y ([1]; time 24 h): 100%
4 | COc1ccc([C@@]23CCC(=NOc4ccccc4)C[C@@H]2N(C)CC3)cc1OC [Compound 207, (3aS,7aS)-3a-(3,4-dimethoxyphenyl)-1-methyl-N-phenoxy-2,3,4,5,7,7a-hexahydroindol-6-imine] | 0 | 0 | 0 | 0 | 0 | 0 | 0 | 0 | 0 | 0 | 1.5 | 7.9 | 
5 | COc1ccc([C@@]23CCC(=NOCc4ccccc4)C[C@@H]2N(C)CC3)cc1OC [Compound 208, (3aS,7aS)-N-benzyloxy-3a-(3,4-dimethoxyphenyl)-1-methyl-2,3,4,5,7,7a-hexahydroindol-6-imine] | 0 | 0 | 0 | 0 | 0 | 0 | 0 | 0 | 0 | 0 | 11.5 | 12 | 
6 | COc1ccc([C@@]23CCC(=NOCc4cccnc4)C[C@@H]2N(C)CC3)cc1OC [Compound 209, (3aS)-3a-(3,4-dimethoxyphenyl)-1-methyl-N-(3-pyridylmethoxy)-2,3,4,5,7,7a-hexahydroindol-6-imine] | 0 | 0 | 0 | 0 | 0 | 0 | 0 | 0 | 0 | 0 | 0 | 0 | 
7 | COc1ccc([C@@]23CCC(=NOCCON=C4CC[C@@]5(c6ccc(OC)c(OC)c6)CCN(C)[C@H]5C4)C[C@@H]2N(C)CC3)cc1OC [Compound 210, (3aS,7aS)-N-[2-[[(3aS,7aS)-3a-(3,4-dimethoxyphenyl)-1-methyl-2,3,4,5,7,7a-hexahydroindol-6-ylidene]amino]oxyethoxy]-3a-(3,4-dimethoxyphenyl)-1-methyl-2,3,4,5,7,7a-hexahydroindol-6-imine] | 0 | 0 | 0 | 0 | 0 | 0 | 0 | 0 | 3.48 | 7.51 | 14.75 | 15.35 | 
8 | COc1ccc([C@]23CCN(C)[C@H]2CC2(CC3)OCC(C(=O)O)O2)cc1OC (stereo partly drawn) [Compound 214, (3aS,7aS)-3a-(3,4-dimethoxyphenyl)-1-methyloctahydrospiro[indole-6,2′-[1,3]dioxolane]-4′-carboxylic acid] | 0 | 0 | 0 | 0 | 0 | 0 | 0 | 0 | 0 | 0 | 0 | 0 | 
9 | COc1ccc([C@@]23CC/C(=N/OC(C)(C)OC)C[C@@H]2N(C)CC3)cc1OC [Compound 219, (Z,3aS,7aS)-3a-(3,4-dimethoxyphenyl)-N-(1-methoxy-1-methyl-ethoxy)-1-methyl-2,3,4,5,7,7a-hexahydroindol-6-imine] | 0 | 0 | 0 | 0 | 0 | 0 |  |  |  |  |  |  | Condition 1 Conversion (%), first value of pair x/y ([1]; time 1 min): 100%; Condition 1 Conversion (%), second value of pair x/y ([1]; time 1 min): 0%; Condition 1 Conversion (%), first value of pair x/y ([1]; time 5 min): 100%; Condition 1 Conversion (%), second value of pair x/y ([1]; time 5 min): 0%; Condition 1 Conversion (%), first value of pair x/y ([1]; time 30 min): 0%; Condition 1 Conversion (%), second value of pair x/y ([1]; time 30 min): 100%; Condition 1 Conversion (%), first value of pair x/y ([1]; time 1 h): 0%; Condition 1 Conversion (%), second value of pair x/y ([1]; time 1 h): 100%; Condition 1 Conversion (%), first value of pair x/y ([1]; time 4 h): 0%; Condition 1 Conversion (%), second value of pair x/y ([1]; time 4 h): 100%; Condition 1 Conversion (%), first value of pair x/y ([1]; time 24 h): 0%; Condition 1 Conversion (%), second value of pair x/y ([1]; time 24 h): 100%
10 | COc1ccc([C@@]23CCC(=NNC(=O)c4ccc(F)cc4)C[C@@H]2N(C)CC3)cc1OC [Compound 220, N-[[(3aS)-3a-(3,4-dimethoxyphenyl)-1-methyl-2,3,4,5,7,7a-hexahydroindol-6-ylidene]amino]-4-fluoro-benzamide] | 20.02 | 21.53 | 22.27 | 55.36 | 88.25 | 89.93 | 86.72 | 100 | 100 | 100 | 100 | 100 | 
11 | COc1ccc([C@@]23CCC(=NNc4ccc(Cl)cc4)C[C@@H]2N(C)CC3)cc1OC [Compound 221, N-[[(3aS,7aS)-3a-(3,4-dimethoxyphenyl)-1-methyl-2,3,4,5,7,7a-hexahydroindol-6-ylidene]amino]-4-chloro-aniline] | 0 | 0 | 0 | 0 | 0 | 0 | 0 | 0 | 2.9 | 3.4 | 17.5 | 95.1 | 
